# Data as given in PubChem BioAssay AID248 (DTP/NCI, 2004).
# Several values for one entry are separate records, joined by “and”; a condition that tells them apart may be missing. Equal values may be shown once. Inconclusive results and toxic doses are left out.
# Test system: L1210 leukemia ip in BDF1 mice, survival T/C
# Assay: NCI In Vivo Anticancer Drug Screen. Data for tumor model L1210 Leukemia (intraperitoneal) in B6D2F1 (BDF1) mice
# Conditions: higher = longer survival
# In short: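 Value reflects the ratio of survival in compound-treated mice to survival in vehicle-treated controls, with both groups carrying the same transplanted tumor.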
# [1] = endpoint: mean survival time, dose: 100.0 mg/kg/injection, schedule: Q01DX001 (ip), vehicle: saline
# [2] = endpoint: mean survival time, dose: 200.0 mg/kg/injection, schedule: Q01DX001 (ip), vehicle: saline
# [3] = endpoint: mean survival time, dose: 400.0 mg/kg/injection, schedule: Q01DX001 (ip), vehicle: saline
# [4] = endpoint: mean survival time, dose: 50.0 mg/kg/injection, schedule: Q01DX009 (ip), vehicle: saline with Tween-80
# [5] = endpoint: mean survival time, dose: 100.0 mg/kg/injection, schedule: Q04DX003 (ip), vehicle: Klucel (hydroxypropylcellulose) (HPC)
# [6] = endpoint: mean survival time, dose: 200.0 mg/kg/injection, schedule: Q04DX003 (ip), vehicle: Klucel (hydroxypropylcellulose) (HPC)
# [7] = endpoint: mean survival time, dose: 400.0 mg/kg/injection, schedule: Q04DX003 (ip), vehicle: Klucel (hydroxypropylcellulose) (HPC)
smiles,measurement,setting,value
CCOC(=O)C1=C(C(=O)OCC)C2(c3ccccc3)NC1(c1ccccc1)c1ccccc12,T/C,[1],101 % of control
same,T/C,[2],97 % of control
same,T/C,[3],97 % of control
COc1ccccc1[As](=O)(O)CC(O)COc1ccccc1 (centres undefined),T/C,"endpoint: mean survival time, dose: 25.0 mg/kg/injection, schedule: Q04DX003 (ip), vehicle: saline with Tween-80",91 % of control
Fc1c(F)c(-c2c(F)c(F)c(S)c(F)c2F)c(F)c(F)c1S,T/C,"endpoint: mean survival time, dose: 100.0 mg/kg/injection, schedule: Q04DX002 (ip), vehicle: saline with Tween-80",88 % of control
same,T/C,"endpoint: mean survival time, dose: 200.0 mg/kg/injection, schedule: Q04DX002 (ip), vehicle: saline with Tween-80",98 % of control
CC(C)(c1ccccc1)[N+](C)(C)C,T/C,"endpoint: mean survival time, dose: 4.0 mg/kg/injection, schedule: Q01DX Z (ip), vehicle: saline",93 % of control
same,T/C,"endpoint: mean survival time, dose: 6.25 mg/kg/injection, schedule: Q01DX009 (ip), vehicle: saline",97 % of control
same,T/C,"endpoint: mean survival time, dose: 6.25 mg/kg/injection, schedule: Q04DX003 (ip), vehicle: saline",104 % of control
same,T/C,"endpoint: mean survival time, dose: 8.0 mg/kg/injection, schedule: Q01DX Z (ip), vehicle: saline",96 % of control
same,T/C,"endpoint: mean survival time, dose: 12.5 mg/kg/injection, schedule: Q01DX009 (ip), vehicle: saline",91 % of control
same,T/C,"endpoint: mean survival time, dose: 12.5 mg/kg/injection, schedule: Q04DX003 (ip), vehicle: saline",103 % of control
same,T/C,"endpoint: mean survival time, dose: 16.0 mg/kg/injection, schedule: Q01DX Z (ip), vehicle: saline",92 % of control
same,T/C,"endpoint: mean survival time, dose: 25.0 mg/kg/injection, schedule: Q01DX009 (ip), vehicle: saline",92 % of control
same,T/C,"endpoint: mean survival time, dose: 25.0 mg/kg/injection, schedule: Q04DX003 (ip), vehicle: saline",91 % of control
CC12CC[C]([Hg][I])(CC1)C2(C)C,T/C,"endpoint: mean survival time, dose: 6.25 mg/kg/injection, schedule: Q01DX009 (ip), vehicle: saline with Tween-80",101 % of control and 103 % of control
same,T/C,"endpoint: mean survival time, dose: 12.5 mg/kg/injection, schedule: Q01DX009 (ip), vehicle: saline with Tween-80",95 % of control and 110 % of control
same,T/C,"endpoint: mean survival time, dose: 25.0 mg/kg/injection, schedule: Q01DX009 (ip), vehicle: saline with Tween-80",98 % of control and 211 % of control
same,T/C,[4],91 % of control
CN(C)C/C=C/COC(=O)C(C)(C)C,T/C,"endpoint: mean survival time, dose: 75.0 mg/kg/injection, schedule: Q01DX001 (ip), vehicle: saline",93 % of control
same,T/C,"endpoint: mean survival time, dose: 150.0 mg/kg/injection, schedule: Q01DX001 (ip), vehicle: saline",97 % of control
same,T/C,"endpoint: mean survival time, dose: 300.0 mg/kg/injection, schedule: Q01DX001 (ip), vehicle: saline",87 % of control
CN(CCOc1ccccc1O)CCOc1ccccc1O,T/C,[5],105 % of control
same,T/C,"endpoint: mean survival time, dose: 200.0 mg/kg/injection, schedule: Q01DX009 (ip), vehicle: Klucel (hydroxypropylcellulose) (HPC)",101 % of control
same,T/C,[6],106 % of control
same,T/C,"endpoint: mean survival time, dose: 400.0 mg/kg/injection, schedule: Q01DX009 (ip), vehicle: Klucel (hydroxypropylcellulose) (HPC)",86 % of control
same,T/C,[7],101 % of control
CCOC(=O)c1ccc(N(Cc2cccc([N+](=O)[O-])c2)S(=O)(=O)c2ccc(C)cc2)cc1,T/C,"endpoint: mean survival time, dose: 75.0 mg/kg/injection, schedule: Q01DX001 (ip), vehicle: saline with Tween-80",93 % of control
same,T/C,"endpoint: mean survival time, dose: 150.0 mg/kg/injection, schedule: Q01DX001 (ip), vehicle: saline with Tween-80",87 % of control
C=C1C=C(C)N(C(=O)c2ccccc2Br)CCN1C(=O)c1ccccc1Br,T/C,[5],96 % of control
same,T/C,[6],105 % of control
same,T/C,[7],100 % of control
COc1cc2c[n+](C)c3c4cc5c(cc4ccc3c2cc1OC)OCO5,T/C,"endpoint: mean survival time, dose: 1.0 mg/kg/injection, schedule: Q01DX009 (ip), vehicle: saline",109 % of control and 120 % of control
same,T/C,"endpoint: mean survival time, dose: 10.0 mg/kg/injection, schedule: Q01DX009 (ip), vehicle: saline",118 % of control
same,T/C,"endpoint: mean survival time, dose: 40.0 mg/kg/injection, schedule: Q01DX009 (ip), vehicle: saline",121 % of control
same,T/C,"endpoint: mean survival time, dose: 64.0 mg/kg/injection, schedule: Q01DX009 (ip), vehicle: saline",117 % of control and 121 % of control
same,T/C,"endpoint: mean survival time, dose: 80.0 mg/kg/injection, schedule: Q04DX003 (ip), vehicle: saline",150 % of control
same,T/C,"endpoint: mean survival time, dose: 100.0 mg/kg/injection, schedule: Q04DX002 (ip), vehicle: Klucel (hydroxypropylcellulose) (HPC)",111 % of control
same,T/C,"endpoint: mean survival time, dose: 200.0 mg/kg/injection, schedule: Q04DX002 (ip), vehicle: Klucel (hydroxypropylcellulose) (HPC)",111 % of control
same,T/C,"endpoint: mean survival time, dose: 400.0 mg/kg/injection, schedule: Q04DX002 (ip), vehicle: Klucel (hydroxypropylcellulose) (HPC)",107 % of control
same,T/C,"endpoint: median survival time, dose: 1.0 mg/kg/injection, schedule: Q03HX024 (ip), vehicle: saline",114 % of control
same,T/C,"endpoint: median survival time, dose: 2.0 mg/kg/injection, schedule: Q03HX016 (ip), vehicle: saline",124 % of control
same,T/C,"endpoint: median survival time, dose: 4.0 mg/kg/injection, schedule: Q03HX008 (ip), vehicle: saline",121 % of control
same,T/C,"endpoint: median survival time, dose: 4.0 mg/kg/injection, schedule: Q03HX016 (ip), vehicle: saline",119 % of control
same,T/C,"endpoint: median survival time, dose: 8.0 mg/kg/injection, schedule: Q04DX003 (ip), vehicle: saline",103 % of control
same,T/C,"endpoint: median survival time, dose: 8.0 mg/kg/injection, schedule: Q08DX002 (ip), vehicle: saline",105 % of control
same,T/C,"endpoint: median survival time, dose: 16.0 mg/kg/injection, schedule: Q01DX009 (oral), vehicle: saline",105 % of control
same,T/C,"endpoint: median survival time, dose: 16.0 mg/kg/injection, schedule: Q03HX008 (ip), vehicle: saline",121 % of control
same,T/C,"endpoint: median survival time, dose: 16.0 mg/kg/injection, schedule: Q04DX003 (ip), vehicle: saline",101 % of control
same,T/C,"endpoint: median survival time, dose: 16.0 mg/kg/injection, schedule: Q08DX002 (ip), vehicle: saline",103 % of control
same,T/C,"endpoint: median survival time, dose: 32.0 mg/kg/injection, schedule: Q01DX001 (ip), vehicle: saline",121 % of control
same,T/C,"endpoint: median survival time, dose: 32.0 mg/kg/injection, schedule: Q01DX009 (oral), vehicle: saline",109 % of control
same,T/C,"endpoint: median survival time, dose: 32.0 mg/kg/injection, schedule: Q04DX003 (ip), vehicle: saline",101 % of control
same,T/C,"endpoint: median survival time, dose: 64.0 mg/kg/injection, schedule: Q01DX001 (ip), vehicle: saline",112 % of control
same,T/C,"endpoint: median survival time, dose: 64.0 mg/kg/injection, schedule: Q01DX009 (ip), vehicle: saline",112 % of control
same,T/C,"endpoint: median survival time, dose: 64.0 mg/kg/injection, schedule: Q01DX009 (oral), vehicle: saline",103 % of control
same,T/C,"endpoint: median survival time, dose: 64.0 mg/kg/injection, schedule: Q04DX003 (ip), vehicle: saline",101 % of control
same,T/C,"endpoint: median survival time, dose: 128.0 mg/kg/injection, schedule: Q01DX001 (ip), vehicle: saline",121 % of control
same,T/C,"endpoint: median survival time, dose: 128.0 mg/kg/injection, schedule: Q01DX009 (oral), vehicle: saline",102 % of control
same,T/C,"endpoint: median survival time, dose: 128.0 mg/kg/injection, schedule: Q04DX003 (ip), vehicle: saline",87 % of control
same,T/C,"endpoint: median survival time, dose: 128.0 mg/kg/injection, schedule: Q08DX002 (ip), vehicle: saline",101 % of control
same,T/C,"endpoint: median survival time, dose: 256.0 mg/kg/injection, schedule: Q01DX009 (oral), vehicle: saline",100 % of control
same,T/C,"endpoint: median survival time, dose: 512.0 mg/kg/injection, schedule: Q01DX009 (oral), vehicle: saline",105 % of control
Cc1nc2cc(N=Cc3ccc(N(CCCl)CCCl)cc3)ccc2n1C,T/C,"endpoint: mean survival time, dose: 68.8 mg/kg/injection, schedule: Q04DX002 (ip), vehicle: Klucel (hydroxypropylcellulose) (HPC)",104 % of control
same,T/C,"endpoint: mean survival time, dose: 137.5 mg/kg/injection, schedule: Q04DX002 (ip), vehicle: Klucel (hydroxypropylcellulose) (HPC)",104 % of control
same,T/C,"endpoint: mean survival time, dose: 275.0 mg/kg/injection, schedule: Q04DX002 (ip), vehicle: Klucel (hydroxypropylcellulose) (HPC)",104 % of control
O=S(=O)(C1CCCCC1)N1N=NC2CCCCC21 (centres undefined),T/C,[4],93 % of control
same,T/C,"endpoint: mean survival time, dose: 100.0 mg/kg/injection, schedule: Q01DX009 (ip), vehicle: saline with Tween-80",90 % of control
CCCCN=C(NCCCC)Oc1ccccc1,T/C,"endpoint: mean survival time, dose: 26.6 mg/kg/injection, schedule: Q01DX Z (ip), vehicle: methylcellulose (MC)",104 % of control
same,T/C,"endpoint: mean survival time, dose: 40.0 mg/kg/injection, schedule: Q01DX Z (ip), vehicle: methylcellulose (MC)",102 % of control
same,T/C,"endpoint: mean survival time, dose: 60.0 mg/kg/injection, schedule: Q01DX Z (ip), vehicle: methylcellulose (MC)",102 % of control
O=C(C(=O)c1ccc(O)cc1O)c1ccc(O)cc1O,T/C,[1],97 % of control
same,T/C,[2],97 % of control
same,T/C,[3],97 % of control
Cc1ccc(Cl)cc1NC(=O)Nc1ccccc1,T/C,"endpoint: mean survival time, dose: 0.75 mg/kg/injection, schedule: Q01DX009 (ip), vehicle: Klucel (hydroxypropylcellulose) (HPC)",92 % of control
same,T/C,"endpoint: mean survival time, dose: 1.5 mg/kg/injection, schedule: Q01DX009 (ip), vehicle: Klucel (hydroxypropylcellulose) (HPC)",90 % of control
same,T/C,"endpoint: mean survival time, dose: 3.0 mg/kg/injection, schedule: Q01DX009 (ip), vehicle: Klucel (hydroxypropylcellulose) (HPC)",94 % of control and 90 % of control
same,T/C,[5],90 % of control
same,T/C,[6],90 % of control
same,T/C,[7],87 % of control
COc1ccc(OC)c2c1C1C=CC2C1,T/C,"endpoint: mean survival time, dose: 177.0 mg/kg/injection, schedule: Q01DX001 (ip), vehicle: other",98 % of control
same,T/C,"endpoint: mean survival time, dose: 266.0 mg/kg/injection, schedule: Q01DX001 (ip), vehicle: other",94 % of control
same,T/C,"endpoint: mean survival time, dose: 400.0 mg/kg/injection, schedule: Q01DX001 (ip), vehicle: other",89 % of control
same,T/C,"endpoint: mean survival time, dose: 600.0 mg/kg/injection, schedule: Q01DX001 (ip), vehicle: other",96 % of control
